Data on 2 compounds can be found in US9227953B2, “Crystal form” (Glaxo Group Limited, priority 2011, dated 2016).

Holding throughout (type): physicochemical
Series [1] can be described thus: Dynamic Vapor Sorption. As to conditions: product of Example 1(d). As for the experimental part: The product was characterized in several ways and determined to be the form termed Form 1 rilapladib. It provided an XRPD pattern as represented in FIG. 3, a Raman spectrum as represented in FIG. 4, and a capillary melting point of 116-118° C.
Series [2] can be described thus: relative thermodynamic stability of rilapladib crystal forms. As to conditions: compared with other crystalline forms of rilapladib.
A short description of series [3]: chemical stability of the crystal form.

In the case of `COCCN1CCC(N(Cc2ccc(-c3ccc(C(F)(F)F)cc3)cc2)C(=O)Cn2c(SCc3cccc(F)c3F)cc(=O)c3ccccc32)CC1` [Form 1 rilapladib, N-[1-(2-methoxyethyl)-piperidin-4-yl]-2-[2-(2,3-difluorobenzylthio)-4-oxo-4H-quinolin-1-yl]-N-(4′-trifluoromethylbiphenyl-4-ylmethyl)acetamide], the “hygroscopicity by Dynamic Vapor Sorption” value in series [1] is “non-hygroscopic”.
For the compound `COCCN1CCC(N(Cc2ccc(-c3ccc(C(F)(F)F)cc3)cc2)C(=O)Cn2c(SCc3cccc(F)c3F)cc(=O)c3ccccc32)CC1` [rilapladib Form 3, N-[1-(2-methoxyethyl)-piperidin-4-yl]-2-[2-(2,3-difluorobenzylthio)-4-oxo-4H-quinolin-1-yl]-N-(4′-trifluoromethylbiphenyl-4-ylmethyl)acetamide], the thermodynamic stability result in series [2] was “more thermodynamically stable than Form 1 and Form 2”. The chemical stability entry in series [3] was “very good chemical stability”.
